Measurements reported in article PMC9037180, “Ligand-based design and synthesis of N'-Benzylidene-3,4-dimethoxybenzohydrazide derivatives as potential antimicrobial agents; evaluation by in vitro, in vivo, and in silico approaches with SAR studies” (Journal of Enzyme Inhibition and Medicinal Chemistry, 2022).
≈ marks a conversion by molar mass, not a printed value. Where two headings read alike, the source gives them in different places.

What was measured:
[1] = tested on: S. typhi clinical isolate; assay: Minimal inhibitory concentration (MIC), broth dilution; format: cell-based
C. albicans MTCC183 = assay: as above; format: cell-based
Excerpt: In vitro evaluation for antifungal activities regarding target compounds (4a–j) as well as reference drug, was done against C. albicans MTCC183 through the zone inhibition technique using well diffusion agar assay in addition to MIC.

[2] = tested on: E. faecalis, Acientobacter, P. auriginosa, S. aureus, S. typhi, E. coli, C. albicans; assay: Average MIC over the nine tested microbial species (SAR); format: cell-based; conditions: for antimicrobial activity (SAR grading): based on MIC average values
Excerpt: Herein, we aimed to study the structure-antimicrobial activity relationship of the newly synthesised N'-benzylidene-3,4-dimethoxybenzohydrazide derivatives based on MIC average values[51]^,[52] as represented in the supplementary data (Table SI1). Thereby, the changes in their antimicrobial potential and spectrum upon structural modifications could be unveiled, thus offering clues for structural changes that are capable of increasing the antimicrobial potential.

E. coli = assay: Minimal bactericidal concentration (MBC); format: cell-based
Description: (§1) After determining the MIC for the target compounds, the minimal bactericidal concentration (MBC) for each compound that is required to kill each one of the above-mentioned microorganisms was assessed.

S. aureus = assay: Minimal bactericidal concentration (MBC); format: cell-based
Description: as §1

S. typhi [3] = assay: Biochemical analysis in S. typhi infected rats; format: in vivo
Description: The compounds 4h and 4j were dissolved in DMSO (dimethyl sulfoxide) then further dilutions were made by using sterile distilled water. The doses of both candidates were calculated according to the method given by Paget and Barnes[60]. Sterile distilled water, DEMSO, and investigated compounds (4h (1.9 and 3.8 mg/kg) and 4j (1.9 and 3.8 mg/kg)) were injected in a volume of 4 ml/kg[61]. The experiment lasts two weeks, the 1st week for induction of infection in the infected groups and the 2nd week for the administration of the compounds in all groups. […]
ALT and AST were determined[66] using commercial kits obtained from Diamond Diagnostics, Egypt.
Serum urea was determined by using the modified Berthelot–Searcy method. Serum creatinine activity was also assessed by using the application of Jaffe’s reaction.
Serum levels of the pro-inflammatory cytokine, TNF-α, were determined by the quantitative enzyme immunoassay (EIA) kit purchased from R&D Systems (USA) according to the method of Howard and Harada[69], while that of anti-inflammatory cytokine IL-10 was according to Croft et al.. […]

[4] = H&E histological examination of liver and kidney, uninfected treated rats; format: in vivo; conditions: for liver histological structure (H&E): 1.9 and 3.8 mg/kg IP daily for one week; for kidney histological structure (H&E): low dose and high dose (1.9 and 3.8 mg/kg IP)
Description: (§2) Rats were divided randomly into equal fifteen groups, each containing 9 rats as follows: • Group 1: Rats were kept on standard laboratory chow and water ad libitum to serve as a control. • Group 2: Rats have injected IP with sterile distilled water (4ml/kg) daily for one week to serve as a control. • Group 3: Rats have injected IP with DEMSO (dimethyl sulfoxide) (4 ml/kg) daily for one week to serve as a control. • Group 4: Rats have injected IP with 4h (1.9 mg/kg) daily for one week. • Group 5: Rats have injected IP with 4h (3.8 mg/kg) daily for one week. • Group 6: Rats have injected IP with 4i (1.9 mg/kg) daily for one week. • Group 7: Rats have injected IP with 4i (3.8 mg/kg) daily for one week. • Group 8: Rats were infected by a single IM injection of S. aureus strain [1.0 ml) 1 × 10^7) colony-forming units]. • Group 9: Rats have injected IP with 4h (1.9 mg/kg) daily for one week on the 7th day after induction of infection by a single IM injection of S. aureus strain [1.0 ml (1 × 10^7) colony-forming units. • Group 10: Rats have injected IP with 4h (3.8 mg/kg) daily for one week on the 7th day after induction of infection by a single IM injection of S. aureus strain [1.0 ml (1 × 10^7) colony-forming units]. • Group 11: Rats were infected by a single IM injection of S. typhi strain [1.0 ml (1 × 10^7) colony forming units). • Group 12: Rats have injected IP with 4h (1.9 mg/kg) daily for one week. on the 7th day after induction of infection by a single IM injection of S. typhi strain [1.0 ml (1 × 10^7) colony-forming units]. • Group 13: Rats have injected IP with 4h (3.8 mg/kg) daily for one week on the 7th day after infection by a single IM injection of S. typhi strain [1.0 ml (1 × 10^7) colony-forming units]. • Group 14: Rats have injected IP with 4i (1.9 mg/kg) daily for one week. on the 7th day after induction of infection by a single IM injection of S. typhi strain [1.0 ml (1 × 10^7) colony-forming units]. • Group 15: Rats have injected IP with 4i (3.8 mg/kg) daily for one week. on the 7th day after induction of infection by a single IM injection of Salmonella strain [1.0 ml (1 × 10^7) colony-forming units].
(§3) At the end of the experiment, the animals were euthanized through cervical dislocation. After that, the liver and kidney were dissected for histological study. The procedure for histological preparations was described by Bancroft and Stevens[73]. Briefly, liver and kidney tissues were sliced to 3–4 mm thick, fixed in 10% neutral buffered formalin (10% NBF), dehydrated in graded concentrations of ethanol, cleared in xylene, and embedded in paraffin. The paraffin blocks were sectioned with a microtome at (4–6 μm) thickness and dyed with H & E stain to study the general tissue structure.

S. typhi [5] = assay: H&E histological examination of liver and kidney, S. typhi infected rats; format: in vivo
Description: as §2, §3

E. faecalis ATCC 29212 = assay: Minimal inhibitory concentration (MIC), broth dilution
A. baumanii ATCC 19606 = assay: as above
P. aeruginosa ATCC10145 = assay: as above
E. coli ATCC 25922 = assay: as above
[6] = first dose (1.9 mg/kg IP daily for one week)
[7] = second dose (3.8 mg/kg IP daily for one week)

| Molecule | antimicrobial activity (SAR grading) [2] | renal and liver functions, oxidative stress and inflammatory markers (urea, creatinine, ALT, AST, GSH, MDA, TNF-α, IL-10) (S. typhi [3]; [6]) | renal and liver functions, oxidative stress and inflammatory markers (urea, creatinine, ALT, AST, GSH, MDA, TNF-α, IL-10) (S. typhi [3]; [7]) | liver histological structure (H&E) [4] | kidney histological structure (H&E) [4] | kidney pathological changes (H&E) (S. typhi [5]; high dose (3.8 mg/kg)) | liver pathological changes (H&E) (S. typhi [5]; high dose (3.8 mg/kg)) | kidney pathological changes (H&E) (S. typhi [5]; low dose (1.9 mg/kg)) | liver pathological changes (H&E) (S. typhi [5]; low dose (1.9 mg/kg)) | also measured |
| --- | --- | --- | --- | --- | --- | --- | --- | --- | --- | --- |
| COc1ccc(C(=O)NN=Cc2ccc3ccccc3n2)cc1OC [Compound 4i, N'-(quinolin-2-ylmethylene)-3,4-dimethoxybenzohydrazide] | weaker antimicrobial potential | normalisation of urea, ALT, and AST | returning of urea, creatinine, ALT, and AST | normal histological structure | histological structure similar to those of the control groups | marked improved renal tissue | marked improvement in the pathological changes | improved pathological changes | improved pathological changes | MIC ([1]; Salmonella enterica, TYPHI): 93.4 µM (≈ 31.3 µg/mL); MIC (C. albicans MTCC183; Candida albicans, MTCC183): 23.3 µM (≈ 7.81 µg/mL); MIC ([2]; read-out: Average MIC): 99.7 µM (≈ 33.4 µg/mL); MBC (E. coli; Escherichia coli): 186 µM (≈ 62.5 µg/mL); MBC (S. aureus; Staphylococcus aureus): 186 µM (≈ 62.5 µg/mL); MIC (E. faecalis ATCC 29212; Enterococcus faecalis, ATCC29212): 93.4 µM (≈ 31.3 µg/mL); MIC (A. baumanii ATCC 19606; Acinetobacter baumannii, ATCC19606): 11.6 µM (≈ 3.9 µg/mL); MIC (P. aeruginosa ATCC10145; Pseudomonas aeruginosa, ATCC10145): 186 µM (≈ 62.5 µg/mL); MIC (E. coli ATCC 25922; Escherichia coli, ATCC25922): 23.3 µM (≈ 7.81 µg/mL) |
| N'-((3a,7a-dihydro-1H-indol-3-yl)methylene)-3,4-dimethoxybenzohydrazide [Compound 4h] | weaker antimicrobial potential | significant improvement in all measured parameters | returning of urea, creatinine, AST, and TNF-α to normal levels | normal histological structure | histological structure similar to those of the control groups | marked improved renal tissue | marked improvement in the pathological changes | improved pathological changes | improved pathological changes | MIC ([1]; S. typhi (ST)): 12.07 µM; MIC (C. albicans MTCC183; C. albicans (CA), read-out: MIC): 386.80 µM; Average MIC ([2]; average over nine microbial species): 112.13 µM; MBC (E. coli; E. coli): 96.87 µM; MBC (S. aureus; S. aureus): 96.87 µM; MIC (E. faecalis ATCC 29212; E. faecalis (EF)): 96.87 µM; MIC (A. baumanii ATCC 19606; Acientobacter ATCC 19606 (A A)): 48.28 µM; MIC (P. aeruginosa ATCC10145; P. auriginosa (PA)): 193.40 µM; MIC (E. coli ATCC 25922; E. coli (EC)): 48.28 µM |
